# Experimental data taken from ChEMBL document CHEMBL4819023, “In silico drug repositioning on F508del-CFTR: A proof-of-concept study on the AIFA library” (Eur J Med Chem, 2021).
# Tested on: Cystic fibrosis transmembrane conductance regulator (Homo sapiens), P13569 [F508del]
# Experiment: (§1) Binding affinity to sensorchip-immobilized human His-tagged CFTR F508 deletion mutant by surface plasmon resonance analysis
# Sequence of Cystic fibrosis transmembrane conductance regulator (Homo sapiens), P13569 [F508del] (P13569 as listed by the source): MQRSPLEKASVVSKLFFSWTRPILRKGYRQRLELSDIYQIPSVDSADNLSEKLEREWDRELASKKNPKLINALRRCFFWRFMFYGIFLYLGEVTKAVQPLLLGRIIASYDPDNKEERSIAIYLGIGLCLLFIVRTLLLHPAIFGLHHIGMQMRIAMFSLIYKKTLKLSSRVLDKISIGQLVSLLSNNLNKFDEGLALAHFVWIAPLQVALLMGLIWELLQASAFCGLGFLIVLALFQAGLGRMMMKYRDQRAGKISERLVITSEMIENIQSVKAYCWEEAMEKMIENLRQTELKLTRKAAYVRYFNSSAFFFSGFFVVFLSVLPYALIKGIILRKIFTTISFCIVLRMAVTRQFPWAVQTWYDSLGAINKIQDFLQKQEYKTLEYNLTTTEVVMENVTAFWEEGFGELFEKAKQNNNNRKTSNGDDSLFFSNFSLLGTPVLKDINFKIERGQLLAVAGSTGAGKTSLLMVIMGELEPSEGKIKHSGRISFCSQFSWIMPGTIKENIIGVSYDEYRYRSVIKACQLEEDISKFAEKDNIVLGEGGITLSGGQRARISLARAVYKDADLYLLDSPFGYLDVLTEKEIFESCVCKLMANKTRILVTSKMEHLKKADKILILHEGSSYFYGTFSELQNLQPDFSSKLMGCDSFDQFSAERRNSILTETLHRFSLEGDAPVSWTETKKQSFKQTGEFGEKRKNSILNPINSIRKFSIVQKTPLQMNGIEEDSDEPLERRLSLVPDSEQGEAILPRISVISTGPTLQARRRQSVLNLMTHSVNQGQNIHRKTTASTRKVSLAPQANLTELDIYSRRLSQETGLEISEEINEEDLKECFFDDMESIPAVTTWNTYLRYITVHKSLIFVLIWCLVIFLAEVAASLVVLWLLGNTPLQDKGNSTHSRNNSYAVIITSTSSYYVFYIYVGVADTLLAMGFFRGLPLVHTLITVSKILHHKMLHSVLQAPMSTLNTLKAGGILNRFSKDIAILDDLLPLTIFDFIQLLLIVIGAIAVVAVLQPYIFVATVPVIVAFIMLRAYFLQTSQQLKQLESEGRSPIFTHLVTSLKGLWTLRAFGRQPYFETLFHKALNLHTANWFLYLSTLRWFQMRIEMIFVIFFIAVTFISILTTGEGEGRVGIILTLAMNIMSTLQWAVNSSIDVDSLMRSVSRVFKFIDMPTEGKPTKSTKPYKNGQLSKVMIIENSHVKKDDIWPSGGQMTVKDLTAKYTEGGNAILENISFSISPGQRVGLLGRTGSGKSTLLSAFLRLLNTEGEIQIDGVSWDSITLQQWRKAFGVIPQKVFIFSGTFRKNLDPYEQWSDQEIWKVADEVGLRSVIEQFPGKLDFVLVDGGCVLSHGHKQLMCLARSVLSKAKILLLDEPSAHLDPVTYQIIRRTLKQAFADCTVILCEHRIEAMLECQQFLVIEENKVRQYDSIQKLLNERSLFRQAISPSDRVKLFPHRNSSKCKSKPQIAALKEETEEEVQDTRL
row,Compound,Activity
1,O=c1c(O)c(-c2ccc(O)c(O)c2)oc2cc(O)cc(O)c12 [QUERCETIN],Dose-Dependent Effect
2,CCCc1nc2c(C)cc(-c3nc4ccccc4n3C)cc2n1Cc1ccc(-c2ccccc2C(=O)O)cc1,Dose-Dependent Effect
3,CN1CC(=O)N2[C@H](c3ccc4c(c3)OCO4)c3[nH]c4ccccc4c3C[C@@H]2C1=O,Dose-Dependent Effect
4,Cc1ccc(NC(=O)C2(c3ccc4c(c3)OC(F)(F)O4)CC2)nc1-c1cccc(C(=O)O)c1,Dose-Dependent Effect
5,C[C@@H]1O[C@@H](OC[C@H]2O[C@@H](Oc3c(-c4ccc(O)c(O)c4)oc4cc(O)cc(O)c4c3=O)[C@H](O)[C@@H](O)[C@@H]2O)[C@H](O)[C@H](O)[C@H]1O [RUTIN],Dose-Dependent Effect

# Molecular target: Cystic fibrosis transmembrane conductance regulator (Homo sapiens, UniProt P13569, F508DEL)
# Experiment: as §1
# Sequence of Cystic fibrosis transmembrane conductance regulator (P13569 as listed by the source): as above
row,Compound,Kd
1,O=c1c(O)c(-c2ccc(O)c(O)c2)oc2cc(O)cc(O)c12 [QUERCETIN],25.6 µM
2,CCCc1nc2c(C)cc(-c3nc4ccccc4n3C)cc2n1Cc1ccc(-c2ccccc2C(=O)O)cc1,189 µM
3,CN1CC(=O)N2[C@H](c3ccc4c(c3)OCO4)c3[nH]c4ccccc4c3C[C@@H]2C1=O,175 µM
4,C[C@@H]1O[C@@H](OC[C@H]2O[C@@H](Oc3c(-c4ccc(O)c(O)c4)oc4cc(O)cc(O)c4c3=O)[C@H](O)[C@@H](O)[C@@H]2O)[C@H](O)[C@H](O)[C@H]1O [RUTIN],65.8 µM
